Assay [1] concerns the target T1, AChE from electric eel (EeAChE) (Electrophorus electricus, UniProt O42275).
T1 construct: Acetylcholinesterase used was obtained from electric eel (Electrophorus electricus L; EeAChE); purchased Sigma-Aldrich (Prague, Czech Republic); host or cells: electric eel (natural source)
Briefly: biochemical. The note with it: for IC50: electric eel AChE, mean ± SD, n = three independent experiments; for Selectivity BuChE/AChE (selectivity index, SI): ratio of IC50 for BuChE/IC50 for AChE. As to the method: (§1) Newly synthesized N-alkyl-2-[4-(trifluoromethyl)benzoyl]hydrazine-1-carboxamides 2a–2q were evaluated for their in vitro potency to inhibit AChE from electric eel (EeAChE) and BuChE from equine serum (EqBuChE) using modified Ellman’s spectrophotometric method. […] The efficacy of inhibitors is expressed as IC50, i.e., the concentration causing 50% inhibition of the enzyme activity. Based on IC50 values for both enzymes, selectivity indexes (SI) as the ratio of IC50 for BuChE/IC50 for AChE to quantify the preference for AChE were calculated (Table 1).
(§2) IC50 values were determined using the spectrophotometric Ellman’s method modified according to Zdražilová et al., which is a simple, rapid and direct method to determine the SH and -S-S- group content. This method is widely used for the screening of the efficiency of cholinesterases inhibitors. The enzymatic activity is measured indirectly by quantifying the concentration of the 5-thio-2-nitrobenzoic acid ion formed in the reaction between the thiol reagent 5,5′-dithio-bis(2-nitrobenzoic acid) and thiocholine, a product of acetylthiocholine substrate hydrolysis by cholinesterases.
(§3) The enzyme activity in final reaction mixture (2000 µL) was 0.2 U/mL, concentration of acetylthiocholine (or butyrylthiocholine) 40 µM and concentration of 5,5′-dithio-bis(2-nitrobenzoic acid) 0.1 mM for all reactions. The tested compounds were dissolved in DMSO and then diluted in demineralized water to the concentration of 1 mM. […] All measurements were carried in triplicates and the average values of reaction rate (v0-uninhibited reaction, vi-inhibited reaction) were used for construction of the dependence v0/vi vs. concentration of inhibitor. From obtained equation of regression curve, IC50 values were calculated.
(§4) Acetylcholinesterase used was obtained from electric eel (Electrophorus electricus L.; EeAChE) and butyrylcholinesterase from equine serum (EqBuChE).

The target in assay [2] is T2, BuChE from equine serum (EqBuChE) (Equus caballus, UniProt P81908).
T2 construct: butyrylcholinesterase from equine serum (EqBuChE); purchased Sigma-Aldrich (Prague, Czech Republic); host or cells: equine serum (natural source)
Briefly: biochemical. The note with it: mean ± SD, n = three independent experiments. As to the method:
as §1, §2, §3, §4

For assay [3], the system named is M. kansasii 235/80 and M. kansasii 6509/96. Briefly: In vitro antimycobacterial activity (MIC). It counts as cell-based. The following applies: Mycobacterium kansasii, read-out: MIC M. kansasii.
In assay [4] the test system is M. tuberculosis 331/88, M. avium 330/88, M. kansasii 235/80, M. kansasii 6509/96. Briefly: In vitro antimycobacterial activity (MIC), whole panel, strain not specified. It counts as cell-based. The following applies: panel of four mycobacterial strains; read-out: MIC (mycobacteria, strain not specified).
In assay [5] the test system is Mycobacterium tuberculosis 331/88 (H37Rv). Briefly: In vitro antimycobacterial activity (MIC). It counts as cell-based. The note with it: read-out: MIC M. tuberculosis.

Values after ≈ are worked out from the molar mass of the structure shown. Where two headings read alike, the source gives them in different places. Bounds are passed on as bounds.

T2 sequence (P81908 whole entry): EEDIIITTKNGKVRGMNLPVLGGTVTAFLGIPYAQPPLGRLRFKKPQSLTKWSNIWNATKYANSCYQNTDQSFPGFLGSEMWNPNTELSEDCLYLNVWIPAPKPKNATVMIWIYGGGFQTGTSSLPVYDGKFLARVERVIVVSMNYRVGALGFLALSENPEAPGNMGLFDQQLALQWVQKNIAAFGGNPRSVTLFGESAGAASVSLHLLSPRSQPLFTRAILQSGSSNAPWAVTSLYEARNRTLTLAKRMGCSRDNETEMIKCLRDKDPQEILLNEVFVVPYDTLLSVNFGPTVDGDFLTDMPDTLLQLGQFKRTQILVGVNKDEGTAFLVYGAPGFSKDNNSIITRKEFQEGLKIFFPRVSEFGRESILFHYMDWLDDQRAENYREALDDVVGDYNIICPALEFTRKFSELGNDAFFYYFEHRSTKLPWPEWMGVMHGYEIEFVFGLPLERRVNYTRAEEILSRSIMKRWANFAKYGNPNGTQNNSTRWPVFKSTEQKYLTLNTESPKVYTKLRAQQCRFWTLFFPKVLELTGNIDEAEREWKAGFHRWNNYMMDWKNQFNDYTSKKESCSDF
T1 sequence (O42275 24-633): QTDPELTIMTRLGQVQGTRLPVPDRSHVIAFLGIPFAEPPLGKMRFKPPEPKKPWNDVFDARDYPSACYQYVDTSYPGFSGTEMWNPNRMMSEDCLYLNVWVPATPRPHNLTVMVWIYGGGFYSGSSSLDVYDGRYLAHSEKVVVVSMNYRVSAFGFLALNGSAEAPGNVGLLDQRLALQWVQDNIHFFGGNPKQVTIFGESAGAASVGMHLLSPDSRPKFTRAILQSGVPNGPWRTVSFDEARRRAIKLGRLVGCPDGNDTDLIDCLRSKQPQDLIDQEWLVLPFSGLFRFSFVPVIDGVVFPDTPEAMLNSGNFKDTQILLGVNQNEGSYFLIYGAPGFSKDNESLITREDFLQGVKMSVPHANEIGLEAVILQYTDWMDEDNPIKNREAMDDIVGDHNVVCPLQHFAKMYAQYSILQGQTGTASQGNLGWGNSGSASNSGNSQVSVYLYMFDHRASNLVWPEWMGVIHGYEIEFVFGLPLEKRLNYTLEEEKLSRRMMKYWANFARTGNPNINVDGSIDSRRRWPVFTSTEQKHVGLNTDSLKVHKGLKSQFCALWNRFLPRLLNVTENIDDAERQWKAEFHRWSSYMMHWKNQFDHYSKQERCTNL

As for `CCCCCCCCCCCNC(=O)NNC(=O)c1ccc(C(F)(F)F)cc1` [2k, 2-[4-(Trifluoromethyl)benzoyl]-N-undecylhydrazine-1-carboxamide], the IC50 in assay [1] (read-out: IC50 AChE) stood at 40.71 ± 0.37 µM; in assay [2] (read-out: IC50 BuChE), 179 ± 2.96 µM. For the same compound, in assay [1], the “Selectivity BuChE/AChE (selectivity index, SI)” value is on record as 4.4.

Take `CCCCCCNc1nnc(-c2ccc(C(F)(F)F)cc2)o1` [compound 4, N-Hexyl-5-[4-(trifluoromethyl)phenyl]-1,3,4-oxadiazol-2-amine]: the MIC in assay [3] was 62.5 to 250 µM (≈ 19.6 to 78.3 µg/mL); in assay [4], at least 62.5 µM; in assay [5] (H37RV), 125 to 250 µM (≈ 39.2 to 78.3 µg/mL). Also, the IC50 in assay [1] (read-out: IC50 AChE) was 71.32 ± 0.63 µM; in assay [2] (read-out: IC50 BuChE), 118 ± 1.46 µM. The “Selectivity BuChE/AChE (selectivity index, SI)” value in assay [1] came to 1.7.

In the case of `CCCCCCCCCCCCNC(=O)NNC(=O)c1ccc(C(F)(F)F)cc1` [2l, N-Dodecyl-2-[4-(trifluoromethyl)benzoyl]hydrazine-1-carboxamide], the IC50 was 45.2 ± 0.69 µM in assay [1] (read-out: IC50 AChE) and 264.14 ± 0.22 µM in assay [2] (read-out: IC50 BuChE). Also, the “Selectivity BuChE/AChE (selectivity index, SI)” value in assay [1] is given as 5.8.

Consider `CCCCCCCCCCCCCCCNC(=O)NNC(=O)c1ccc(C(F)(F)F)cc1` [2o, N-Pentadecyl-2-[4-(trifluoromethyl)benzoyl]hydrazine-1-carboxamide], for which the IC50 in assay [1] (read-out: IC50 AChE) worked out at 27 µM; in assay [2] (read-out: IC50 BuChE), 233 ± 15.7 µM. The “Selectivity BuChE/AChE (selectivity index, SI)” value in assay [1] came to 8.6.

As to `CCCCCCCCCCCCCCCC(=O)NNC(=O)c1ccc(C(F)(F)F)cc1` [3b, N′-Palmitoyl-4-(trifluoromethyl)benzohydrazide], the values for the IC50 in assay [1] (read-out: IC50 AChE) and in assay [2] (read-out: IC50 BuChE) were 91.9 ± 6.79 µM and 148.6 ± 0.36 µM, respectively. In addition, the “Selectivity BuChE/AChE (selectivity index, SI)” value in assay [1] is listed as 1.6.

As to `CCCCCCCCCNC(=O)NNC(=O)c1ccc(C(F)(F)F)cc1` [2i, N-Nonyl-2-[4-(trifluoromethyl)benzoyl]hydrazine-1-carboxamide], the IC50 in assay [1] (read-out: IC50 AChE) was 107 µM; in assay [2] (read-out: IC50 BuChE), 82.2 ± 3.42 µM. The “Selectivity BuChE/AChE (selectivity index, SI)” value in assay [1] was 0.8.

`CNC(=O)NNC(=O)c1ccc(C(F)(F)F)cc1` [2a, N-Methyl-2-[4-(trifluoromethyl)benzoyl]hydrazine-1-carboxamide]: the MIC in assay [3] and in assay [5] (H37RV) was 1000 µM (≈ 261 µg/mL) throughout. For the same compound, the IC50 in assay [1] (IC50 AChE) was 31.2 ± 1.87 µM; in assay [2] (IC50 BuChE), 84.2 ± 2.1 µM. Also, the “Selectivity BuChE/AChE (selectivity index, SI)” value in assay [1] amounted to 2.7.

As for `CCCCCCNC(=O)NNC(=O)c1ccc(C(F)(F)F)cc1` [2f, N-Hexyl-2-[4-(trifluoromethyl)benzoyl]hydrazine-1-carboxamide], the MIC in assay [3] and in assay [5] (H37RV) was 250 µM (≈ 82.8 µg/mL) in each case. For the same compound, the results for the IC50 in assay [1] (read-out: IC50 AChE) and in assay [2] (read-out: IC50 BuChE) were 49.2 ± 2.36 µM and 72.5 ± 1.51 µM, respectively. In addition, the “Selectivity BuChE/AChE (selectivity index, SI)” value in assay [1] was 1.5.

Regarding `CCCCCNC(=O)NNC(=O)c1ccc(C(F)(F)F)cc1` [2e, N-Pentyl-2-[4-(trifluoromethyl)benzoyl]hydrazine-1-carboxamide], the figures for the IC50 in assay [1] (read-out: IC50 AChE) and in assay [2] (read-out: IC50 BuChE) were 43.59 ± 0.41 µM and 58 µM, respectively. In addition, the “Selectivity BuChE/AChE (selectivity index, SI)” value in assay [1] is recorded as 1.3.

For the compound `NNC(=O)c1ccncc1` [isoniazid, isonicotinoylhydrazide, reference compound], the MIC in assay [5] (M. tuberculosis 331/88 (H37Rv)) came out at 1 µM (≈ 0.137 µg/mL).

Turning to `CCCCCCCNC(=O)NNC(=O)c1ccc(C(F)(F)F)cc1` [2g, N-Heptyl-2-[4-(trifluoromethyl)benzoyl]hydrazine-1-carboxamide], the IC50 was 59.2 ± 2.38 µM in assay [1] (read-out: IC50 AChE) and 79.3 ± 1.53 µM in assay [2] (read-out: IC50 BuChE). Further, in assay [1], the “Selectivity BuChE/AChE (selectivity index, SI)” value stood at 1.3.

Turning to `CCCCCC(=O)NNC(=O)c1ccc(C(F)(F)F)cc1` [3a, N′-Hexanoyl-4-(trifluoromethyl)benzohydrazide], the MIC in assay [3] is above 250 µM; in assay [5] (H37RV), 125 µM (≈ 37.8 µg/mL). Moreover, the IC50 in assay [1] (read-out: IC50 AChE) came out at 67.1 ± 3.05 µM; in assay [2] (read-out: IC50 BuChE), 110 ± 0.2 µM. The “Selectivity BuChE/AChE (selectivity index, SI)” value in assay [1] is 1.6.

Take `CCCCCCCCCCCCCCCCCCNC(=O)NNC(=O)c1ccc(C(F)(F)F)cc1` [2q, N-Octadecyl-2-[4-(trifluoromethyl)benzoyl]hydrazine-1-carboxamide]: the IC50 in assay [1] (read-out: IC50 AChE) worked out at 72.3 ± 2.01 µM; in assay [2] (read-out: IC50 BuChE), 146 ± 2.6 µM. Besides, in assay [1], the “Selectivity BuChE/AChE (selectivity index, SI)” value is on record as 2.0.

On to `CCCCCCCCCCCCCCNC(=O)NNC(=O)c1ccc(C(F)(F)F)cc1` [2n, N-Tetradecyl-2-[4-(trifluoromethyl)benzoyl]hydrazine-1-carboxamide], for which the IC50 in assay [1] (read-out: IC50 AChE) amounted to 38.7 ± 1.14 µM; in assay [2] (read-out: IC50 BuChE) it was 262 ± 17.2 µM. In addition, in assay [1], the “Selectivity BuChE/AChE (selectivity index, SI)” value is listed as 6.8.

Consider `CCCCCCCCNC(=O)NNC(=O)c1ccc(C(F)(F)F)cc1` [2h, N-Octyl-2-[4-(trifluoromethyl)benzoyl]hydrazine-1-carboxamide], for which the values for the IC50 in assay [1] (read-out: IC50 AChE) and in assay [2] (read-out: IC50 BuChE) were 77 ± 4.75 µM and 101.3 ± 0.99 µM, respectively. Moreover, in assay [1], the “Selectivity BuChE/AChE (selectivity index, SI)” value stood at 1.3.

Regarding `CCCNC(=O)NNC(=O)c1ccc(C(F)(F)F)cc1` [2c, N-Propyl-2-[4-(trifluoromethyl)benzoyl]hydrazine-1-carboxamide], the values for the IC50 in assay [1] (read-out: IC50 AChE) and in assay [2] (read-out: IC50 BuChE) were 82.3 ± 3.31 µM and 112.7 ± 0.98 µM, respectively.

Turning to `CCCCNC(=O)NNC(=O)c1ccc(C(F)(F)F)cc1` [2d, N-Butyl-2-[4-(trifluoromethyl)benzoyl]hydrazine-1-carboxamide], the IC50 in assay [1] (read-out: IC50 AChE) stood at 38.6 ± 1.32 µM; in assay [2] (read-out: IC50 BuChE), 87.8 ± 7.96 µM. In addition, the “Selectivity BuChE/AChE (selectivity index, SI)” value in assay [1] turned out to be 2.3.

In the case of `CCCCCCCCCCCCCCCCNC(=O)NNC(=O)c1ccc(C(F)(F)F)cc1` [2p, N-Hexadecyl-2-[4-(trifluoromethyl)benzoyl]hydrazine-1-carboxamide], the IC50 in assay [1] (read-out: IC50 AChE) was 68.63 ± 0.56 µM; in assay [2] (read-out: IC50 BuChE), 187 ± 13.2 µM. For the same compound, the “Selectivity BuChE/AChE (selectivity index, SI)” value in assay [1] came out at 2.7.

Consider `CCCCCCCCCCNC(=O)NNC(=O)c1ccc(C(F)(F)F)cc1` [2j, N-Decyl-2-[4-(trifluoromethyl)benzoyl]hydrazine-1-carboxamide], for which the IC50 in assay [1] (read-out: IC50 AChE) is 49.5 ± 1.74 µM; in assay [2] (read-out: IC50 BuChE), 192 ± 6.83 µM. For the same compound, the “Selectivity BuChE/AChE (selectivity index, SI)” value in assay [1] is on record as 3.9.

Take `CCCCCCCCCCCCCNC(=O)NNC(=O)c1ccc(C(F)(F)F)cc1` [2m, N-Tridecyl-2-[4-(trifluoromethyl)benzoyl]hydrazine-1-carboxamide]: the IC50 in assay [1] (IC50 AChE) stood at 28.9 ± 0.67 µM; in assay [2] (IC50 BuChE), 278 µM; in assay [2] (read-out: IC50 BuChE), 277 ± 10.3 µM. Further, the “Selectivity BuChE/AChE (selectivity index, SI)” value in assay [1] is on record as 9.6.

Turning to `CCNC(=O)NNC(=O)c1ccc(C(F)(F)F)cc1` [2b, N-Ethyl-2-[4-(trifluoromethyl)benzoyl]hydrazine-1-carboxamide], the MIC in assay [3] and in assay [5] (H37RV) was 1000 µM (≈ 275 µg/mL) in each case. In addition, the IC50 in assay [1] (read-out: IC50 AChE) stood at 56.32 ± 0.54 µM; in assay [2] (read-out: IC50 BuChE) it was 103 ± 2.75 µM. Moreover, the “Selectivity BuChE/AChE (selectivity index, SI)” value in assay [1] is recorded as 1.8.
